Source: publication PMC10905995, “Strategy for the Enzymatic Acylation of the Apple Flavonoid Phloretin Based on Prior α-Glucosylation” (Journal of Agricultural and Food Chemistry, 2024)
Converted amounts (≈) assume the structure as drawn.

Legend:
[1] = In vitro percutaneous absorption, Franz static diffusion cells; format: in vitro ADME; details: pig skin biopsies, 24 h exposure; for effect of acylation on skin absorption: versus phloretin and 4′-O-α-glucoside
Experimental: The study was carried out in vitro with pig biopsies placed on Franz static diffusion cells (3 mL, 1.86 cm^2 of exposed area, […], Lara-Spiral, Courtenon, France) in order to determine the distribution of the active compound (API) at the different skin layers after an exposure time of 24 h. All materials and procedures for this test have been described in a previous report employing phloretin and two glucosides.[33] The concentration of the extracted active compound was determined with the HPLC method described before.
Figure 6 In vitro percutaneous absorption of acylated derivatives of phloretin and their precursors (phloretin and its 4′-O-α-glucoside) within the different skin layers. W is the surface excess, SC is the stratum corneum, E is the epidermis, D is the dermis, FR is the fluid receptor, and Perc. Abs. is the percutaneous absorption. The results are expressed as μg/cm^2 of the active pharmaceutical ingredient (API). Mean values ± standard deviations, n = 3; *p < 0.05 vs phloretin; ^#p < 0.05 vs α-Glc-phloretin.

[2] = Aqueous solubility (saturated conditions, 3 days, UV 297 nm); format: physicochemical; details: water, 25 °C, thermodynamic from solid
Experimental: The compounds were incubated at 25 °C in water (saturated conditions) during 3 days under orbital stirring (1000 rpm). Then, the samples were centrifuged, and the supernatants (200 μL) were analyzed in triplicate in a 96-well plate, using a phloretin calibration curve in methanol (0–200 μg/mL). The absorbance was measured at 297 nm in a UV–vis spectrophotometer (Tecan Infinite M200).

[3] = parameters: method as in doi:10.1002/adsc.202100201; details: cited from earlier work

| SMILES | effect of acylation on skin absorption [1] | solubility at 3 days [2] | percutaneous absorption, increase versus phloretin and 4′-O-α-glucoside [1] | aqueous solubility greater than aglycone ([3]; versus phloretin aglycone) | solubility ([3]; water, 25 °C, data available in a previous article) |
| --- | --- | --- | --- | --- | --- |
| CCCCCCCC(=O)OC[C@H]1O[C@H](Oc2cc(O)c(C(=O)CCc3ccc(O)cc3)c(O)c2)[C@H](O)[C@@H](O)[C@@H]1O [1a, phloretin 4′-O-(6-O-octanoyl)-α-D-glucopyranoside] | no significant effect | 22.1 ± 0.5 µg/mL (≈ 39.3 µM) |  |  |  |
| CCCCCCCCCCCC(=O)OC[C@H]1O[C@H](Oc2cc(O)c(C(=O)CCc3ccc(O)cc3)c(O)c2)[C@H](O)[C@@H](O)[C@@H]1O [1b, phloretin 4′-O-(6-O-lauroyl)-α-D-glucopyranoside] |  | 6 ± 0.2 µg/mL (≈ 9.7 µM) | approximately 3 fold |  |  |
| CCCCCCCCCCCCCCCC(=O)OC[C@H]1O[C@H](Oc2cc(O)c(C(=O)CCc3ccc(O)cc3)c(O)c2)[C@H](O)[C@@H](O)[C@@H]1O [1c, phloretin 4′-O-(6-O-palmitoyl)-α-D-glucopyranoside] | no significant effect | 7.1 ± 0.3 µg/mL (≈ 10.5 µM) |  |  |  |
| O=C(CCc1ccc(O)cc1)c1c(O)cc(O[C@H]2O[C@H](CO)[C@@H](O)[C@H](O)[C@H]2O)cc1O [phloretin 4′-O-α-D-glucoside, phloretin 4′-O-α-D-glucopyranoside] |  |  |  | 71 fold | 1644 ± 101 µg/mL (≈ 3770 µM) |
